Data reported in patent publication US6562803B2, “Hair-growing agent” (Kyowa Hakko Kogyo Co., Ltd., priority 2001, dated 2003).

Test system: mouse hair follicle epithelial cells
Assay: Cell growth-promoting effect on cultured mouse hair follicle epithelial cells (MTT)
Type: cell-based
Details: cultured 5 days, absorbance at 570 nm, control DMSO alone = 100
Description: The skin on the back of a 4-days-old C3H mouse (Charles River Japan, Inc.) was cut off and treated with MEM (Eagle's Minimum Essential Medium) containing 500 units/ml Dispase (Godo Shusei Co., Ltd.) and 5% fetal calf serum (FCS) at 4° C. for 16 hours.
The dermis suspension was filtered through a 212-μm nylon mesh (Nippon Rikagaku Kikai Co., Ltd.) and the filtrate was centrifuged at 1000 rpm for 5 minutes to obtain pellets containing hair follicle tissue. To the pellets was added calcium/magnesium-free PBS (Dulbecco's Phosphate-Buffered Saline) and the pellets were suspended therein using a pipette. The resulting suspension was allowed to stand for 15 minutes to precipitate hair follicle tissue. The same procedure as above (addition of calcium/magnesium-free PBS, suspending by use of a pipette, and precipitation by allowing the suspension to stand for 15 minutes) was repeated three times using the obtained hair follicle tissue.
To the resulting mixture was added DMEM containing 10% FCS to prepare a hair follicle tissue cell suspension having a density of 3×10^5 cells/ml. The hair follicle tissue cell suspension was put into wells of a 24-well collagen-coated plate (Iwaki Glass Co., Ltd.) in an amount of 1 ml/well, followed by culturing in 5% CO2 at 37° C. for 24 hours.
During the culturing, the medium was replaced with a fresh one every other day.
The degree of cell growth was measured according to the method using MTT [3-(4,5-dimethylthiazol-2-yl)-2,5-diphenyl tetrazolium bromide]
To each well of the 24-well microplate (2 cm^2/well) was added a PBS solution of MTT (5 mg/ml) in an amount of 1/10 by volume based on 1 ml of the culture. The plate was shaken to make the mixture homogeneous, followed by culturing in 5% CO2 at 37° C. for 4 hours. Four hours later, the culture was sucked and 1 ml of a 0.04 mol/l solution of HCl in isopropyl alcohol was added to each well to completely dissolve formazan formed in the wells.
The degree of cell growth was determined by measuring the absorbance at 570 nm based on that at 650 nm as a control.

Compound	Relative cell growth rate based on the control as 100 (1 μmol/l)	Relative cell growth rate based on the control as 100 (30 μmol/l)
CCCCCCCC/C=C\CCCCCCCC(=O)OCC(COP(=O)(O)O)OC(C)=O (stereo not drawn) [1-O-oleoyl-2-O-acetylglyceryl-3-phosphoric Acid]	327	
Oc1cc(O)c2c(c1)O[C@H](c1ccc(O)c(O)c1)[C@H](O)[C@H]2c1c(O)cc(O)c2c1O[C@H](c1ccc(O)c(O)c1)[C@H](O)C2 [Procyanidin B-2, epicatechin-(4β→8)-epicatechin]		295
Cc1c(C)c2c(c(C)c1O)CCC(C)(CCCC(C)CCCC(C)CCCC(C)C)O2 (racemic) [dl-α-Tocopherol, dl-α-tocopherol]		178
